Test results reported in PubChem BioAssay AID330 (DTP/NCI, 2004).
“And” between values parts separate entries of the source, which are not always exact repeats. Identical values can stand only once. Toxic doses and inconclusive results are not listed. Peptide text beside a SMILES is read from it. * marks the point of attachment. Cbz = O=C(OCc1ccccc1)*; OtBu = CC(C)(C)O*

Tested on: P388 leukemia ip, CD2F1 mice, survival T/C
Assay: NCI In Vivo Anticancer Drug Screen. Data for tumor model P388 Leukemia (intraperitoneal) in CD2F1 (CDF1) mice
Details: endpoint: median survival time, higher = longer survival
How it was run: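 Mice carrying the transplanted tumor received test compound or vehicle. Survival was recorded in each group, and the value is the treated-group measurement divided by that of the vehicle-treated control group.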

[1] = dose: 50.0 mg/kg/injection, schedule: Q01DX005 (ip), vehicle: saline with Tween-80
[2] = dose: 100.0 mg/kg/injection, schedule: Q01DX005 (ip), vehicle: saline with Tween-80
[3] = dose: 200.0 mg/kg/injection, schedule: Q01DX005 (ip), vehicle: saline with Tween-80
[4] = dose: 60.0 mg/kg/injection, schedule: Q01DX005 (ip), vehicle: saline with Tween-80
[5] = dose: 120.0 mg/kg/injection, schedule: Q01DX005 (ip), vehicle: saline with Tween-80
[6] = dose: 50.0 mg/kg/injection, schedule: Q01DX005 (ip), vehicle: Klucel (hydroxypropylcellulose) (HPC)
[7] = dose: 100.0 mg/kg/injection, schedule: Q01DX005 (ip), vehicle: Klucel (hydroxypropylcellulose) (HPC)
[8] = dose: 200.0 mg/kg/injection, schedule: Q01DX005 (ip), vehicle: Klucel (hydroxypropylcellulose) (HPC)
[9] = dose: 60.0 mg/kg/injection, schedule: Q01DX005 (ip), vehicle: Klucel (hydroxypropylcellulose) (HPC)
[10] = dose: 120.0 mg/kg/injection, schedule: Q01DX005 (ip), vehicle: Klucel (hydroxypropylcellulose) (HPC)
[11] = dose: 240.0 mg/kg/injection, schedule: Q01DX005 (ip), vehicle: Klucel (hydroxypropylcellulose) (HPC)
[12] = dose: 100.0 mg/kg/injection, schedule: Q01DX009 (ip), vehicle: saline with Tween-80
[13] = dose: 200.0 mg/kg/injection, schedule: Q01DX009 (ip), vehicle: saline with Tween-80

CC(C)(C)OC(=O)CCC(NC(=O)C(CCC(=O)OC(C)(C)C)NC(=O)C(CCC(=O)OC(C)(C)C)NC(=O)OCc1ccccc1)C(=O)O (stereo not drawn) (Cbz-Glu(OtBu)-Glu(OtBu)-Glu(OtBu)-OH; configuration not given here)
T/C [1]: 104 % of control
T/C [2]: 100 % of control
T/C [3]: 96 % of control

COc1ccc(C2Cc3cc(OC)c(OC)cc3C(c3ccc(OC)c(OC)c3)N2)cc1OC (stereo not drawn)
T/C [4]: 97 % of control
T/C [5]: 88 % of control
T/C (dose: 240.0 mg/kg/injection, schedule: Q01DX005 (ip), vehicle: saline with Tween-80): 89 % of control

c1ccc2c(c1)ccc1ncc3ncccc3c12
T/C (dose: 100.0 mg/kg/injection, schedule: Q04DX002 (ip), vehicle: saline with Tween-80): 98 % of control
T/C (dose: 200.0 mg/kg/injection, schedule: Q04DX002 (ip), vehicle: saline with Tween-80): 114 % of control

Cn1c2cc3c(c(O)c2c(=O)c2cccnc21)C=CC(C)(C)O3
T/C [6]: 104 % of control
T/C [7]: 91 % of control
T/C [8]: 93 % of control

COc1c2c(c(OC)c3c1c(=O)c1ccccc1n3C)OCO2
T/C [1]: 104 % of control
T/C [2]: 104 % of control
T/C [3]: 100 % of control

COc1cc(C(CC(=O)O)CC(=O)O)cc(OC)c1OC
T/C [1]: 93 % of control
T/C [2]: 95 % of control
T/C [3]: 95 % of control

COC(=O)C1=C(C(=O)OC)C2C=CC1C1C(OC(C)=O)C(OC(C)=O)C21 (stereo not drawn)
T/C (dose: 50.0 mg/kg/injection, schedule: Q01DX009 (ip), vehicle: Klucel (hydroxypropylcellulose) (HPC)): 100 % of control
T/C (dose: 100.0 mg/kg/injection, schedule: Q01DX009 (ip), vehicle: Klucel (hydroxypropylcellulose) (HPC)): 100 % of control
T/C (dose: 200.0 mg/kg/injection, schedule: Q01DX009 (ip), vehicle: Klucel (hydroxypropylcellulose) (HPC)): 107 % of control

CCCCOC(=O)C1ON(c2ccc(C=O)cc2)C(c2ccc([N+](=O)[O-])cc2)C1C(=O)OCCCC (stereo not drawn)
T/C [6]: 97 % of control
T/C [7]: 94 % of control
T/C [8]: 91 % of control

Cc1ccc(-c2csc3nc(C)cc(=O)n23)cc1
T/C (dose: 100.0 mg/kg/injection, schedule: Q04DX003 (ip), vehicle: Klucel (hydroxypropylcellulose) (HPC)): 111 % of control
T/C (dose: 200.0 mg/kg/injection, schedule: Q04DX003 (ip), vehicle: Klucel (hydroxypropylcellulose) (HPC)): 105 % of control
T/C (dose: 400.0 mg/kg/injection, schedule: Q04DX003 (ip), vehicle: Klucel (hydroxypropylcellulose) (HPC)): 106 % of control

O=C(NC(Cc1ccc(F)cc1)C(=O)O)c1ccccc1 (stereo not drawn)
T/C (dose: 25.0 mg/kg/injection, schedule: Q01DX009 (ip), vehicle: other): 113 % of control
T/C (dose: 50.0 mg/kg/injection, schedule: Q01DX009 (ip), vehicle: other): 115 % of control
T/C (dose: 100.0 mg/kg/injection, schedule: Q01DX009 (ip), vehicle: other): 110 % of control

C[n+]1c(-c2cccc(OCCOCCOCCOc3cccc(-c4c5cc(N)ccc5c5ccc(N)cc5[n+]4C)c3)c2)c2cc(N)ccc2c2ccc(N)cc21
T/C (dose: 0.39 mg/kg/injection, schedule: Q01DX009 (ip), vehicle: water): 111 % of control
T/C (dose: 0.78 mg/kg/injection, schedule: Q01DX009 (ip), vehicle: water): 104 % of control

COc1ccc2c(NCCCCCCCCNc3c4ccc(OC)cc4nc4ccc(Cl)cc34)c3cc(Cl)ccc3nc2c1
T/C (dose: 0.63 mg/kg/injection, schedule: Q01DX009 (ip), vehicle: other): 91 % of control
T/C (dose: 1.25 mg/kg/injection, schedule: Q01DX009 (ip), vehicle: other): 105 % of control
T/C (dose: 2.5 mg/kg/injection, schedule: Q01DX009 (ip), vehicle: other): 106 % of control
T/C (dose: 5.0 mg/kg/injection, schedule: Q01DX009 (ip), vehicle: other): 118 % of control

CC(C)CCC[C@@H](C)[C@H]1CC[C@H]2[C@@H]3CC=C4C[C@@H](OC(=O)Cc5ccc(N(CCCl)CCCl)cc5)CC[C@]4(C)[C@H]3CC[C@]12C
T/C (dose: 50.0 mg/kg/injection, schedule: Q01DX010 (ip), vehicle: Klucel (hydroxypropylcellulose) (HPC)): 101 % of control
T/C (dose: 100.0 mg/kg/injection, schedule: Q01DX010 (ip), vehicle: Klucel (hydroxypropylcellulose) (HPC)): 99 % of control
T/C (dose: 200.0 mg/kg/injection, schedule: Q01DX010 (ip), vehicle: Klucel (hydroxypropylcellulose) (HPC)): 101 % of control
T/C (dose: 400.0 mg/kg/injection, schedule: Q01DX010 (ip), vehicle: Klucel (hydroxypropylcellulose) (HPC)): 105 % of control
T/C (dose: 800.0 mg/kg/injection, schedule: Q01DX010 (ip), vehicle: Klucel (hydroxypropylcellulose) (HPC)): 92 % of control

COc1cccc(C)c1NC1=NCCO1
T/C (dose: 0.78 mg/kg/injection, schedule: Q04DX003 (ip), vehicle: saline with Tween-80): 100 % of control
T/C (dose: 1.56 mg/kg/injection, schedule: Q04DX003 (ip), vehicle: saline with Tween-80): 100 % of control
T/C (dose: 3.13 mg/kg/injection, schedule: Q04DX003 (ip), vehicle: saline with Tween-80): 104 % of control

CCC1(c2ccccc2)C(=O)NC(=O)N(CN2CCOCC2)C1=O (stereo not drawn)
T/C [9]: 100 % of control
T/C [10]: 100 % of control
T/C [11]: 98 % of control

c1ccc2c(CCN3CCCCC3)c[nH]c2c1
T/C (dose: 15.0 mg/kg/injection, schedule: Q01DX005 (ip), vehicle: saline with Tween-80): 92 % of control
T/C (dose: 30.0 mg/kg/injection, schedule: Q01DX005 (ip), vehicle: saline with Tween-80): 88 % of control
T/C [4]: 101 % of control and 87 % of control

COc1ccc2c(c1OC)CN1CCc3cc4c(cc3C1C2)OCO4 (stereo not drawn)
T/C [6]: 105 % of control and 91 % of control
T/C [7]: 100 % of control and 94 % of control
T/C [8]: 96 % of control and 94 % of control

O=C1c2ccccc2C(=O)c2c3c(cc(NCCNCCO)c21)N(CCO)CCN3
T/C (dose: 6.25 mg/kg/injection, schedule: Q01DX009 (ip), vehicle: DMSO): 104 % of control
T/C (dose: 12.5 mg/kg/injection, schedule: Q01DX009 (ip), vehicle: DMSO): 123 % of control
T/C (dose: 25.0 mg/kg/injection, schedule: Q01DX009 (ip), vehicle: DMSO): 155 % of control
T/C (dose: 50.0 mg/kg/injection, schedule: Q01DX009 (ip), vehicle: DMSO): 163 % of control
T/C (dose: 100.0 mg/kg/injection, schedule: Q01DX009 (ip), vehicle: DMSO): 101 % of control
T/C (dose: 200.0 mg/kg/injection, schedule: Q01DX009 (ip), vehicle: DMSO): 93 % of control

O=S(=O)(F)c1ccc2nc(-c3cccc(Sc4ccccc4)c3)cc(Cl)c2c1
T/C [12]: 100 % of control
T/C [13]: 95 % of control
T/C (dose: 400.0 mg/kg/injection, schedule: Q01DX009 (ip), vehicle: saline with Tween-80): 95 % of control

CCC[CH2][Sn]([Cl])([Cl])[CH2]CCC
T/C (dose: 0.19 mg/kg/injection, schedule: Q01DX009 (ip), vehicle: saline with Tween-80): 100 % of control
T/C (dose: 0.38 mg/kg/injection, schedule: Q01DX009 (ip), vehicle: saline with Tween-80): 113 % of control
T/C (dose: 0.75 mg/kg/injection, schedule: Q01DX009 (ip), vehicle: saline with Tween-80): 114 % of control and 120 % of control
T/C (dose: 1.5 mg/kg/injection, schedule: Q01DX009 (ip), vehicle: saline with Tween-80): 112 % of control and 114 % of control
T/C (dose: 3.0 mg/kg/injection, schedule: Q01DX009 (ip), vehicle: saline with Tween-80): 168 % of control
T/C (dose: 6.0 mg/kg/injection, schedule: Q01DX009 (ip), vehicle: saline with Tween-80): 91 % of control
T/C (dose: 100.0 mg/kg/injection, schedule: Q04DX003 (ip), vehicle: saline): 109 % of control

CNC(=O)OCc1c(COC(=O)NC)c(C)n(-c2ccc(Cl)c(Cl)c2)c1C
T/C (dose: 12.5 mg/kg/injection, schedule: Q01DX009 (ip), vehicle: saline): 154 % of control and 160 % of control
T/C (dose: 25.0 mg/kg/injection, schedule: Q01DX009 (ip), vehicle: saline): 165 % of control

Cc1[nH]c(C)c2c(=O)ccsc12
T/C [4]: 90 % of control
T/C [5]: 99 % of control

CCN(C)N=Nc1ccc(C(N)=O)cc1
T/C (dose: 25.0 mg/kg/injection, schedule: Q01DX005 (ip), vehicle: Klucel (hydroxypropylcellulose) (HPC)): 101 % of control and 105 % of control
T/C [6]: 95 % of control
T/C [8]: 89 % of control

O=C(O)CCN(Cl)Cl
T/C (dose: 60.0 mg/kg/injection, schedule: Q01DX005 (ip), vehicle: saline): 98 % of control
T/C (dose: 120.0 mg/kg/injection, schedule: Q01DX005 (ip), vehicle: saline): 104 % of control
T/C (dose: 240.0 mg/kg/injection, schedule: Q01DX005 (ip), vehicle: saline): 95 % of control

Cc1ccccc1N=Cc1ccc(N(C)C)cc1
T/C [12]: 91 % of control
T/C [13]: 87 % of control

CCC1(O)C(=O)Nc2ccccc2C1=O (stereo not drawn)
T/C [9]: 98 % of control
T/C [10]: 88 % of control
T/C [11]: 98 % of control
